Experimental data reported in patent publication US8133898B2, “Renin inhibitors” (Takeda Pharmaceutical Company Limited, priority 2008, dated 2012).

Legend:
Recombinant human renin = molecular target: T1, Recombinant human renin (Homo sapiens, UniProt P00797); assay: in vitro enzymatic activity of renin inhibitors (fluorescence); type: biochemical; details: fluorogenic peptide substrate
T1 construct: with trypsin, and isolate the active form (residues 67-406); made in house; host or cells: FreeStyle 293-F cells (transient expression of pcDNA3.1(+)/hREN)
T1 sequence (P00797 67-406): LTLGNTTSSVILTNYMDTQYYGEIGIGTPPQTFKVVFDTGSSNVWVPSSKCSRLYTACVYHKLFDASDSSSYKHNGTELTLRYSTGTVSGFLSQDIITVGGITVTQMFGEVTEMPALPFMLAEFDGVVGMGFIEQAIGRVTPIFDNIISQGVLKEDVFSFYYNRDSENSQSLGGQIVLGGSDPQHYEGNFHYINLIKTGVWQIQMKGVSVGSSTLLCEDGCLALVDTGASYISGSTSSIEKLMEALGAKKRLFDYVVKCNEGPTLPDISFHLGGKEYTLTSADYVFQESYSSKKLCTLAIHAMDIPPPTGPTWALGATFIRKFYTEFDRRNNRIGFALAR
From the text: Test compounds in varying concentrations may be reacted with recombinant human renin in the presence of substrate, e.g., QXL520-γ-Abu-Ile-His-Pro-Phe-His-Leu-Val-Ile-His-Thr-Lys (HiLyteFluo488)-Arg-OH (Anaspec, San Jose, Calif.). The reaction can be followed kinetically using fluorescence (excitation λ=485 nm; emission λ=538 nm). Inhibition constants (IC50) may be calculated by non-linear curve fitting of the compound concentrations and fluorescence intensities to the standard IC50 equation.
Solutions of test compounds in varying concentrations (≦2 mM final concentration) are prepared in dimethyl sulfoxide (DMSO) and then diluted into assay buffer comprising 50 mM Hepes, 1 mM EDTA, 1 mM DTT, 0.1 mg/ml BSA, 0.01% Brij35, pH 7.4. Alternatively, the assay can be performed with a high BSA concentration, wherein the buffer contains an additional 2% BSA.
Recombinant human renin (3 nM final concentration) is added to the dilutions and pre-incubated with the compounds for 10 minutes at 37° C. As described in Examples A-C above, human renin can be obtained by expressing preprorenin (residue 1-406) in mammalian cells, treating the prorenin (residues 24-406) contained in the culture supernatant with trypsin, and isolate the active form (residues 67-406). After pre-incubation, the reaction is initiated with 1 μM of substrate QXL520-γ-Abu-Ile-His-Pro-Phe-His-Leu-Val-Ile-His-Thr-Lys (HiLyteFluo488)-Arg-OH (Anaspec, San Jose, Calif.). The final DMSO in the assay is 5%. The total volume of the reaction mixture is 20 μL, which can be placed on Greiner 384-well small volume plates.
Renin activity may be determined via fluorescence (excitation λ=485 nm; emission λ=538 nm), e.g., on a Molecular Devices SPECTROmax GEMINI XPS. The fluorescence intensity is determined upon the addition of substrate and determined again after incubation at 37° C. for one hour. The fluorescence intensity of a blank (no inhibition) using vehicle alone is also determined. Renin activity is linearly proportional to the change in fluorescence observed (final—initial).
The percent inhibition of renin at a given compound concentration is defined as: 100%×[1−(Fcompound/Fblank)] where Fcompound is the observed fluorescence at a given concentration of test compound and Fblank is the observed fluorescence in the presence of vehicle alone.
The pIC50 value (negative log of the molar concentration of the compound that produces 50% inhibition) of a test compound is calculated by non-linear least squares curve fitting of the equation: Percent Inhibition=100%/(1+(10−pIC50/10 log [I])) to percent inhibition versus compound concentration. The 50% inhibitory concentration (IC50) of a test compound is calculated by raising 10 to the negative pIC50 (10-pIC50).

Human DPP-IV = Human DPP-IV (Homo sapiens, UniProt P27487); assay: in vitro enzymatic activity of inhibitors against DPP-IV; type: biochemical; details: AP-AFC substrate
Sequence of Human DPP-IV (P27487 whole entry): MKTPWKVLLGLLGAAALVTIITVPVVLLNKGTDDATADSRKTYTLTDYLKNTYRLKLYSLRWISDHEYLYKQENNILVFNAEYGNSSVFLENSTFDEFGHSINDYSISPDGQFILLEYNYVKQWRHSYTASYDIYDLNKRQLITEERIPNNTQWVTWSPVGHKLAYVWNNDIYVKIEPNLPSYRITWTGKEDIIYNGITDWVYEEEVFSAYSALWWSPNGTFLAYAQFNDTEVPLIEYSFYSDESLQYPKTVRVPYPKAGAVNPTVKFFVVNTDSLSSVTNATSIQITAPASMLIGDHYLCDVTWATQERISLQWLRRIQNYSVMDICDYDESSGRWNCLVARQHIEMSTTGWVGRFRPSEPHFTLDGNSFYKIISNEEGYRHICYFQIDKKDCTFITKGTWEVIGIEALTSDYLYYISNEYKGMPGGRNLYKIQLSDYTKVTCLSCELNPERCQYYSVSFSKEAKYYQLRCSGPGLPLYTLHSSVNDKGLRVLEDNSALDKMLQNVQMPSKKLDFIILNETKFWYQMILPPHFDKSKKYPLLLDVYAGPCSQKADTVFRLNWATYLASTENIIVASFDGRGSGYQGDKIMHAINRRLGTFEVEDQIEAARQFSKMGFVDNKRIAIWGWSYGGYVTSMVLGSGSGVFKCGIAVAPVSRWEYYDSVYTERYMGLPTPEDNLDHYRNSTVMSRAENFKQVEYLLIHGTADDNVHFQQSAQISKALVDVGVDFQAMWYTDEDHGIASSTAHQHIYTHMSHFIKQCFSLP
Description: Solutions of test compounds in varying concentrations ([…]) were prepared in dimethyl sulfoxide (DMSO) and then diluted into assay buffer comprising: 20 mM Tris, pH 7.4; 20 mM KCl; and 0.1 mg/mL BSA. Human DPP-IV (0.1 nM final concentration) was added to the dilutions and pre-incubated for 10 minutes at ambient temperature before the reaction was initiated with A-P-7-amido-4-trifluoromethylcoumarin (AP-AFC; 10 μM final concentration). The total volume of the reaction mixture was 10-100 μL depending on assay formats used (384 or 96 well plates). The reaction was followed kinetically (excitation λ=400 nm; emission λ=505 nm) for 5-10 minutes or an end-point was measured after 10 minutes. Inhibition constants (IC50) were calculated from the enzyme progress curves using standard mathematical models.

Compound | IC50 (Recombinant human renin) | IC50 (Human DPP-IV)
6-(aminomethyl)-5-(2-bromo-5-fluorophenyl)-7-(4-(ethylamino)phenylthio)-1,3-dimethylpyrido[2,3-d]pyrimidine-2,4(1H,3H)-dione [Compound 69] | 10 to 100 µM | < 1 µM
CCOc1cc(OCC)cc(-c2c(CN)c(NCc3ccc4ccccc4c3)nc3c2c(=O)n(C)c(=O)n3C)c1 [Compound 56, 6-(Aminomethyl)-5-(3,5-diethoxyphenyl)-1,3-dimethyl-7-(naphthalen-2-ylmethylamino)pyrido[2,3-d]pyrimidine-2,4(1H,3H)-dione] | > 100 µM | > 100 µM
Cn1c(=O)c2c(-c3nc4ccccc4s3)c(CN)c(NCc3ccc4ccccc4c3)nc2n(C)c1=O [Compound 62, 6-(Aminomethyl)-5-(benzo[d]thiazol-2-yl)-1,3-dimethyl-7-(naphthalen-2 ylmethylamino)pyrido[2,3-d]pyrimidine-2,4(1H,3H)-dione] | > 100 µM | > 100 µM
CCCOc1ccc(OCCC)c(-c2c(CN)c(NCc3ccc4ccccc4c3)nc3c2c(=O)n(C)c(=O)n3C)c1 [Compound 65, 6-(Aminomethyl)-5-(2,5-dipropoxyphenyl)-1,3-dimethyl-7-(naphthalen-2-ylmethylamino)pyrido[2,3-d]pyrimidine-2,4(1H,3H)-dione] | 10 to 100 µM | > 100 µM
Cn1c(=O)c2c(-c3ccc(CN)cc3)c(CN)c(N)nc2n(C)c1=O [Compound 66, 7-Amino-6-(aminomethyl)-5-(4-(aminomethyl)phenyl)-1,3-dimethylpyrido[2,3-d]pyrimidine-2,4(1H,3H)-dione] | 10 to 100 µM | > 100 µM
CCCOc1cc(OCCC)cc(-c2c(CN)c(NCc3ccc4ccccc4c3)nc3c2c(=O)n(C)c(=O)n3C)c1 [Compound 67, 6-(Aminomethyl)-5-(3,5-dipropoxyphenyl)-1,3-dimethyl-7-(naphthalen-2-ylmethylamino)pyrido[2,3-d]pyrimidine-2,4(1H,3H)-dione] | 10 to 100 µM | > 100 µM
CC(=O)Nc1ccc(Sc2nc3c(c(-c4cc(F)ccc4Br)c2CN)c(=O)n(C)c(=O)n3C)cc1 [Compound 68, N-(4-(6-(aminomethyl)-5-(2-bromo-5-fluorophenyl)-1,3-dimethyl-2,4-dioxo-1,2,3,4-tetrahydropyrido[2,3-d]pyrimidin-7-ylthio)phenyl)acetamide] | 10 to 100 µM | < 1 µM
COc1ccc(F)cc1-c1c(CN)c(NCCCc2ccccc2)nc2c1c(=O)n(C)c(=O)n2C [Compound 75, 6-(aminomethyl)-5-(5-fluoro-2-methoxyphenyl)-1,3-dimethyl-7-(3-phenylpropylamino)pyrido[2,3-d]pyrimidine-2,4(1H,3H)-dione] | 1 to 10 µM | < 1 µM
CC(C)COc1cccc(-c2c(CN)c(N)nc3c2c(=O)n(C)c(=O)n3C)c1 [Compound 76, 7-amino-6-(aminomethyl)-5-(3-isobutoxyphenyl)-1,3-dimethylpyrido[2,3-d]pyrimidine-2,4(1H,3H)-dione] | > 100 µM | 10 to 100 µM

More lines, now with the values ahead:

IC50 (Recombinant human renin) | IC50 (Human DPP-IV) | Compound
1 to 10 µM | > 100 µM | COc1cc(OC)cc(-c2c(CN)c(NCc3ccc4ccccc4c3)nc3c2c(=O)n(C)c(=O)n3C)c1 [Compound 57, 6-(aminomethyl)-5-(3,5-dimethoxyphenyl)-1,3-dimethyl-7-(naphthalen-2-ylmethylamino)pyrido[2,3-d]pyrimidine-2,4(1H,3H)-dione]
1 to 10 µM |  | CN(C)C(=O)c1cccc(-c2c(CN)c(NCc3ccc4ccccc4c3)nc3c2c(=O)n(C)c(=O)n3C)c1 [Compound 58, 3-(6-(Aminomethyl)-1,3-dimethyl-7-(naphthalen-2-ylmethylamino)-2,4-dioxo-1,2,3,4-tetrahydropyrido[2,3-d]pyrimidin-5-yl)-N,N-dimethylbenzamide]
1 to 10 µM | 10 to 100 µM | Cn1c(=O)c2c(-c3cccc4c3OC(C)(C)C4)c(CN)c(NCc3ccc4ccccc4c3)nc2n(C)c1=O [Compound 59, 6-(Aminomethyl)-5-(2,2-dimethyl-2,3-dihydrobenzofuran-7-yl)-1,3-dimethyl-7-(naphthalen-2-ylmethylamino)pyrido[2,3-d]pyrimidine-2,4(1H,3H)-dione]
1 to 10 µM | 10 to 100 µM | COc1ccc(Oc2cccc(-c3c(CN)c(NCc4ccc5ccccc5c4)nc4c3c(=O)n(C)c(=O)n4C)c2)cc1 [Compound 60, 6-(Aminomethyl)-5-(3-(4-methoxyphenoxy)phenyl)-1,3-dimethyl-7-(naphthalen-2-ylmethylamino)pyrido[2,3-d]pyrimidine-2,4(1H,3H)-dione]
1 to 10 µM | 10 to 100 µM | COc1ccc(-c2c(CN)c(NCc3ccc4ccccc4c3)nc3c2c(=O)n(C)c(=O)n3C)cc1OC [Compound 61, 6-(Aminomethyl)-5-(3,4-dimethoxyphenyl)-1,3-dimethyl-7-(naphthalen-2-ylmethylamino)pyrido[2,3-d]pyrimidine-2,4(1H,3H)-dione]
1 to 10 µM | 1 to 10 µM | Cn1c(=O)c2c(-c3ccccc3Oc3ccccc3)c(CN)c(NCc3ccc4ccccc4c3)nc2n(C)c1=O [Compound 63, 6-(Aminomethyl)-1,3-dimethyl-7-(naphthalen-2-ylmethylamino)-5-(2-phenoxyphenyl)pyrido[2,3-d]pyrimidine-2,4(1H,3H)-dione]
1 to 10 µM | > 100 µM | CCOc1ccc(OCC)c(-c2c(CN)c(NCc3ccc4ccccc4c3)nc3c2c(=O)n(C)c(=O)n3C)c1 [Compound 64, 6-(aminomethyl)-5-(2,5-diethoxyphenyl)-1,3-dimethyl-7-(naphthalen-2-ylmethylamino)pyrido[2,3-d]pyrimidine-2,4(1H,3H)-dione]
1 to 10 µM | < 1 µM | COc1ccc(F)cc1-c1c(CN)c(NCc2ccc3ccccc3c2)nc2c1c(=O)n(C)c(=O)n2C [Compound 70, 6-(aminomethyl)-5-(5-fluoro-2-methoxyphenyl)-1,3-dimethyl-7-(naphthalen-2-ylmethylamino)pyrido[2,3-d]pyrimidine-2,4(1H,3H)-dione]
1 to 10 µM |  | COc1cccc(CNc2nc3c(c(-c4cc(F)ccc4OC)c2CN)c(=O)n(C)c(=O)n3C)c1 [Compound 71, 6-(aminomethyl)-5-(5-fluoro-2-methoxyphenyl)-7-(3-methoxybenzylamino)-1,3-dimethylpyrido[2,3-d]pyrimidine-2,4(1H,3H)-dione]
1 to 10 µM | < 1 µM | COc1ccc(F)cc1-c1c(CN)c(NCc2ccc(-n3cccn3)cc2)nc2c1c(=O)n(C)c(=O)n2C [Compound 72, 7-(4-(1H-pyrazol-1-yl)benzylamino)-6-(aminomethyl)-5-(5-fluoro-2-methoxyphenyl)-1,3-dimethylpyrido[2,3-d]pyrimidine-2,4(1H,3H)-dione]
1 to 10 µM |  | CCC(CC)Nc1nc2c(c(-c3cc(F)ccc3OC)c1CN)c(=O)n(C)c(=O)n2C [Compound 73, 6-(aminomethyl)-5-(5-fluoro-2-methoxyphenyl)-1,3-dimethyl-7-(pentan-3-ylamino)pyrido[2,3-d]pyrimidine-2,4(1H,3H)-dione]
